{
  "source": "patent US7666836B2",
  "about": "“Method for the therapeutic management of endometriosis” (priority 1999, dated 2010)",
  "key": {"[1]": {"tested_on": "patients with confirmed endometriosis", "assay": "weekly Cetrorelix acetate treatment of nine patients with confirmed endometriosis (FIG. 1)", "assay_type": "in vivo, human", "settings": "3 mg s.c. weekly for 8 weeks; for hot flushes or other (estradiol) withdrawal symptoms: patients with endometriosis"}, "estradiol serum levels": {"tested_on": "estradiol serum levels", "assay": "estradiol serum levels after weekly administration of cetrorelix (FIG. 2)", "assay_type": "in vivo", "from_the_text": "[…] The estradiol serum levels are between about 35-80 pg/ml, preferably between about 45-75 pg/ml, more preferably between about 50-75 pg/ml."}, "[2]": {"tested_on": "patients with endometriosis", "assay": "weekly Cetrotide s.c. over eight weeks in endometriosis patients with symptomatic pain", "assay_type": "in vivo, human", "settings": "3 mg s.c. per week over eight weeks", "method": "Aim of the medicinal therapy of patients with endometriosis with symptomatic pain is to obtain a treatment without side effects, especially avoiding the negative effects of estrogen suppression and which is long-lasting after finishing therapy. The specific pharmacological mode of action of LHRH antagonists allows new possibilities for treatment of endometriosis.\nThe weekly administration of an adequate dose of an LHRH antagonist, e.g. 3 mg Cetrotide® s.c./per week over a period of eight weeks leads to a controlled suppression of estrogen secretion so that serum concentrations between about 35 pg/ml and about 80 pg/ml, preferably between about 45-75 pg/ml, more preferably between about 50-75 pg/ml are obtained. […] Also the development of osteoporosis can be avoided."}, "[3]": {"tested_on": "patients with endometriosis", "settings": "3 mg s.c. per week over eight weeks; stages rAFS I-II; cited from earlier work"}},
  "note": "Non-standard residues stand in square brackets, D forms with d. Residues, ends and D or L forms follow the SMILES beside them. dPhe(4-Cl) = N[C@H](Cc1ccc(Cl)cc1)C(=O)O; d2Nal = N[C@H](Cc1ccc2ccccc2c1)C(=O)O; dCit = NC(=O)NCCC[C@@H](N)C(=O)O; d3Pal = N[C@H](Cc1cccnc1)C(=O)O",
  "data": [
    {"smiles": "CC(=O)N[C@H](Cc1ccc2ccccc2c1)C(=O)N[C@H](Cc1ccc(Cl)cc1)C(=O)N[C@H](Cc1cccnc1)C(=O)N[C@@H](CO)C(=O)N[C@@H](Cc1ccc(O)cc1)C(=O)N[C@H](CCCNC(N)=O)C(=O)N[C@@H](CC(C)C)C(=O)N[C@@H](CCCNC(=N)N)C(=O)N1CCC[C@H]1C(=O)N[C@H](C)C(N)=O", "note": "[Cetrorelix acetate] (Ac-[d2Nal][dPhe(4-Cl)][d3Pal]SY[dCit]LRP[dA]-NH2)", "values": [
      {"measurement": "proliferation of the endometrium at the end of treatment (histological biopsies)", "setting": "[1]", "result": "no proliferation of the endometrium"},
      {"measurement": "proliferation of the endometrium at the end of treatment (histological biopsies)", "setting": "[1]; listed as Cetrorelix", "result": "without proliferation of the endometrium"},
      {"measurement": "ovarian cyst formation", "setting": "[1]; nine patients", "result": "No ovarian cyst formation occurred"},
      {"measurement": "progress of the disease confirmed by 2nd look laparascopy", "setting": "[1]; nine patients", "result": "without any progress of the disease"},
      {"measurement": "hot flushes or other (estradiol) withdrawal symptoms", "setting": "[1]", "result": "avoiding any hot flushes or other withdrawal symptoms"},
      {"measurement": "hot flushes or other (estradiol) withdrawal symptoms", "setting": "[1]; listed as Cetrorelix", "result": "without any signs of estradiol withdrawal symptoms"},
      {"measurement": "estradiol serum levels (FIG. 2)", "setting": "estradiol serum levels; weekly dose of 1 mg once per week", "result": "35 to 80", "unit": "pg/mL"},
      {"measurement": "estradiol serum levels (FIG. 2)", "setting": "estradiol serum levels; weekly dose of 3 mg once per week", "result": "35 to 80", "unit": "pg/mL"},
      {"measurement": "symptomatic pain", "setting": "[2]; all stages of the disease (rAFS I-IV)", "result": "effectively suppressed"},
      {"measurement": "vegetative symptoms", "setting": "[2]; serum concentration range about 35-80 pg/ml", "result": "no vegetative symptoms arise"},
      {"measurement": "clinical regression of the disease (decrease of the implantation area)", "setting": "[3]", "result": "clinical regression of the disease"}
    ]}
  ]
}
